For three molecules, melting point results are on record in patent US6384225B1, “Intermediates in the preparation of substituted chroman derivatives” (AstraZeneca AB, priority 1997, dated 2002).

As a reminder, the melting point is the temperature, or range, at which the solid turns liquid.

The molecule `COc1ccc(N2CCN(C)CC2)c2c1OCC(C(=O)Nc1ccc(N3CCOCC3)cc1)C2` (stereo not drawn) [Example 20, N-(4-Morpholinophenyl)-8-methoxy-5-(4-methylpiperazin-1-yl)-3,4-dihydro-2H-1-benzopyran-3-carboxamide] had a melting point of 202 to 204 °C. With `CN1CCN(c2ccc(C(N)=O)c3c2C[C@H](NC(=O)c2ccc(C(=O)c4ccccc4)cc2)CO3)CC1` [Example 14, (S)-N-[8-Carbamoyl-5-(4-methylpiperazin-1-yl)-3,4-dihydro-2H-1-benzopyran-3-yl]-4-benzoylbenzamide] the figure was 259 °C (dec.); with `Cc1ccc(C(=O)N[C@@H]2COc3c(C)ccc(N4CCN(C)CC4)c3C2)cc1` [Example 11, (S)-N-[8-Methyl-5-(4-methylpiperazin-1-yl)-3,4-dihydro-2H-1-benzopyran-3-yl]-4-methylbenzamide], 191 to 192 °C.
